Values after ≈ are worked out from the molar mass of the structure shown. Non-standard residues stand in square brackets, D forms with d. Residues, ends and D or L forms follow the SMILES beside them. Abu = CC[C@H](N)C(=O)O
Test system: Fusarium culmorum (IMI 180420)
Test: Antifungal growth inhibition microplate assay (photospectrometry)
Format: cell-based
Details: for F CULMORUM IC50: Table 7 / FIG. 8: Rs-AFP1-based 12-mer split peptides; for F CULMORUM MIC: Table 7: Rs-AFP1-based 12-mer split peptides; for IC50 SMF + pH5 / IC50 SMF + pH7 / IC50 1/2 PDB: duplo; for IC50 ½ PDB: peptides single experiment; for IC50 1/2 PDB: 2 × 10^4 spores/ml; for antifungal activity compared with peptide G1 (and G2), in words: 19-mer peptides, Example 7
Experimental: The following fungal strains were used: Alternaria brassicicola (MUCL 20297), Ascophyta pisi (MUCL 30164), Botrytis cinerea (MUCL 30158), Fusarium culmorum (IMI 180420) and Verticillium dahliae (MUCL 19210).
Fungi were grown on six cereal agar plates at room temperature and under white fluorescent light except for F culmorum and V dahliae which were grown in the dark. The duration of the spore harvest varied between 10 and 25 days depending on the strain. Spores were collected as follows. Five to ten ml of sterile milli-Q water was poured into each dish and the surface of the agar was rubbed with a sterile spatula to obtain a suspension containing mycelium and spores. This suspension was filtered through a sterile glasswool-plugged funnel and the filtrate containing the spores was collected in a sterile polypropylene centrifuge tube. The A brassicicola spores were suspended in sterile 0.1 Tween 20 (Merk, 822184) due to their hydrophobic nature. The spore suspensions were then washed twice by centrifugation at 2,400×g for 15 minutes and resuspended in a small volume of steril milli-Q water. The spore density was determined in a counting chamber and then adjusted to 4×10^7 spores per ml. Aliquots of the spore suspension were transferred to sterile microtubes and an equal volume of sterile 50% glycerol (Merck, 4091) was added to each tube so that a final spore suspension of 2×10^7 spores per ml in 25% glycerol was obtained. After careful mixing of the stock, the spore suspension was transferred in 100 μl aliquots to sterile microtubes and stored at −80° C.
Antifungal activity was measured by photospectrometry as described by Broekaert et al, (1990, FEMS Microbiol Lett, 69:55-60). Tests were performed by adding 20 μl of test solution and 80 μl of a fungal spore suspension (2×10^4 spores/ml) per well in a sterile flat-bottom 96-well microtiterplate. The spore suspension was prepared by diluting the stock spore suspension ([…] in 25% glycerol) 1:1000 in half-strength potato dextrose broth. A positive growth control consisting of eight wells containing 20 μl of sterile milli-Q water and 80 μl of the fungal spore suspension was included in each test. The microtiterplates were incubated (with the lid on) in an aerated place at room temperature and under conditions of darkness for all test organisms.
After 30 minutes of incubation (when the spores are settled on the well bottom) the optical density was measured in a microplate reader (Bio Rad 3550-UV) at 595 nm. Incubation of the microtiterplates continued until the optical density of the control microculture was between 0.250 and 0.500, which took approximately 72 hours (96 hours for V dahliae). Percentage of growth inhibition (% GI) was estimated as 100 times the ratio of the corrected absorbance of the control microculture minus the corrected absorbance of the test microculture over the corrected absorbance of the control microculture at 595 nm. The corrected absorbance values equal the absorbance at 595 nm of the culture measured after 72 or 96 hours minus the absorbance at 595 nm measured after 30 minutes.
% GI=[(Acontrol−Atest/Acontrol]×100
where Acontrol=(A72/96h−A30min)control
The IC50 value is defined as the concentration that gives a 50% growth inhibition after 72 or 96 hours of incubation. The minimum inhibitory concentration (MIC) corresponds to the minimum concentration that gives 100% growth inhibition after 72 or 96 hours incubation.

[1] = Table 4 / FIG. 6: Rs-AFP2-based 12-mer split peptides, ½ PDB, the source numbers peptides by N-terminal amino acid
[2] = Table 4: Rs-AFP2-based 12-mer split peptides, ½ PDB, triplicate
[3] = ½ PDB, the source numbers peptides by N-terminal amino acid
[4] = Table 14: 18-, 19-, 20-mer peptides with C-terminal Phe49
[5] = Table 13: linear β2-β3 loop MPS peptides
[6] = Table 10: medium 1/16 PDB, one test, fungus not named in Example 7
[7] = Table 10: medium ½ PDB, one test, fungus not named in Example 7
[8] = Table 13: linear β2-β3 loop MPS peptides, SMF+ (1 mM Ca2+, 50 mM K+) pH5
[9] = Table 13: linear β2-β3 loop MPS peptides, SMF+ (1 mM Ca2+, 50 mM K+) pH7

Row | Compound | IC50 [1] | MIC [2] | F CULMORUM IC50 [3] | F CULMORUM MIC (½ PDB) | IC50 1/2 PDB [5] | IC50 SMF + pH5 [8] | IC50 SMF + pH7 [9] | other results
1 | 110 (CKNQCIRLEKAR; listed as Raphanus sativus) [compound 110] | 148 µg/mL | 200 µg/mL | 223 µg/mL | 400 µg/mL | – | – | – | –
2 | 113 (QCIRLEKARHGS; listed as Raphanus sativus) [compound 113] | 127 µg/mL | 200 µg/mL | 362 µg/mL | 400 µg/mL | – | – | – | –
3 | 116 (RLEKARHGSCNY; listed as Raphanus sativus) [compound 116] | 202 µg/mL | 400 µg/mL | 359 µg/mL | 400 µg/mL | – | – | – | –
4 | CC[C@H](NC(=O)[C@H](CO)NC(=O)CNC(=O)[C@H](Cc1c[nH]cn1)NC(=O)[C@H](CCCNC(=N)N)NC(=O)[C@H](C)NC(C)=O)C(=O)N[C@@H](CC(N)=O)C(=O)N[C@@H](Cc1ccc(O)cc1)C(=O)N[C@H](C(=O)N[C@@H](Cc1ccccc1)C(=O)N1CCC[C@H]1C(=O)N[C@@H](C)C(=O)N[C@@H](Cc1c[nH]cn1)C(=O)N[C@@H](CCCCN)C(=O)N[C@@H](CC)C(=O)N[C@H](C(=O)N[C@@H](CC)C(=O)N[C@@H](Cc1ccc(O)cc1)C(=O)N[C@@H](Cc1ccccc1)C(N)=O)[C@@H](C)CC)C(C)C [Peptide 001, ARHGSBNYVFPAHKBIBYF] (Ac-ARHGS[Abu]NYVFPAHK[Abu]I[Abu]YF-NH2) | – | – | – | – | – | – | – | IC50 SMF + pH5 [4]: 102 ± 2 μg/ml; IC50 SMF + pH7 [4]: 159 ± 5 μg/ml; IC50 ½ PDB [4]: 5.6 µg/mL (≈ 2.54 µM)
5 | CC[C@H](C)[C@H](NC(=O)[C@H](CS)NC(=O)[C@H](CCCCN)NC(=O)[C@H](Cc1c[nH]cn1)NC(=O)[C@H](C)NC(=O)[C@@H]1CCCN1C(=O)[C@H](Cc1ccccc1)NC(=O)[C@@H](NC(=O)[C@H](Cc1ccc(O)cc1)NC(=O)[C@H](CC(N)=O)NC(=O)[C@H](CS)NC(=O)[C@H](CO)NC(=O)CNC(=O)[C@H](Cc1c[nH]cn1)NC(=O)[C@H](CCCNC(=N)N)NC(=O)[C@H](C)NC(C)=O)C(C)C)C(=O)N[C@@H](CS)C(=O)N[C@@H](Cc1ccc(O)cc1)C(=O)N[C@@H](Cc1ccccc1)C(N)=O [Peptide G1, ARHGSCNYVFPAHKCICYF] (Ac-ARHGSCNYVFPAHKCICYF-NH2) | – | – | – | – | ARHGSCNYVFPAHKCICYF 17.6 ± 1.1 μg/ml | – | – | –
6 | CC[C@H](NC(=O)[C@H](CO)NC(=O)CNC(=O)[C@H](Cc1c[nH]cn1)NC(=O)[C@H](CCCNC(=N)N)NC(=O)[C@H](C)NC(C)=O)C(=O)N[C@@H](CC(N)=O)C(=O)N[C@@H](Cc1ccc(O)cc1)C(=O)N[C@H](C(=O)N[C@@H](Cc1ccccc1)C(=O)N1CCC[C@H]1C(=O)N[C@@H](C)C(=O)N[C@@H](Cc1c[nH]cn1)C(=O)N[C@@H](CCCCN)C(=O)N[C@@H](CC)C(=O)N[C@H](C(=O)N[C@@H](CC)C(=O)N[C@@H](Cc1ccc(O)cc1)C(=O)N[C@@H](Cc1ccccc1)C(N)=O)[C@@H](C)CC)C(C)C [Peptide G2, ARHGSBNYVFPAHKBIBYF] (Ac-ARHGS[Abu]NYVFPAHK[Abu]I[Abu]YF-NH2) | – | – | – | – | 16.0 ± 1.2 µg/mL (≈ 7.26 µM) | 50.0 ± 6.0 μg/ml | >400 μg/ml | antifungal activity compared with peptide G1 (and G2), in words: does not affect antifungal activity; IC50 [6]: 10 µg/mL (≈ 4.54 µM); MIC [6]: 12.5 µg/mL (≈ 5.67 µM); IC50 [7]: 17 µg/mL (≈ 7.71 µM); MIC [7]: 25 µg/mL (≈ 11.3 µM)
7 | CC[C@H](NC(=O)[C@H](C)NC(=O)CNC(=O)[C@H](Cc1c[nH]cn1)NC(=O)[C@H](CO)NC(=O)[C@H](C)NC(C)=O)C(=O)N[C@@H](Cc1c[nH]cn1)C(=O)N[C@@H](CCCCN)C(=O)N[C@@H](CCCNC(=N)N)C(=O)N[C@@H](CCC(=O)O)C(=O)N[C@@H](CC(N)=O)C(=O)N[C@@H](Cc1c[nH]cn1)C(=O)N[C@@H](Cc1c[nH]c2ccccc12)C(=O)N[C@@H](CCCCN)C(=O)N[C@@H](CC)C(=O)N[C@@H](Cc1ccccc1)C(=O)N[C@@H](CC)C(=O)N[C@@H](Cc1ccc(O)cc1)C(=O)N[C@@H](Cc1ccccc1)C(N)=O [Peptide J1, ASHGABHKRENHWKBFBYF] (Ac-ASHGA[Abu]HKRENHWK[Abu]F[Abu]YF-NH2) | – | – | – | – | 9.1 ± 0.6 µg/mL (≈ 3.94 µM) | 47 ± 33 μg/ml | 173.4 ± 0.2 μg/ml | antifungal activity compared with peptide G1 (and G2), in words: even more active; IC50 [6]: 5 µg/mL (≈ 2.16 µM); MIC [6]: 6.25 µg/mL (≈ 2.7 µM); IC50 [7]: 9 µg/mL (≈ 3.89 µM); MIC [7]: 12.5 µg/mL (≈ 5.41 µM); activity compared to Rs-AFP counterpart G2 (½ PDB): almost two-fold higher activity
8 | CC[C@H](NC(=O)[C@H](CO)NC(=O)CNC(=O)[C@H](Cc1c[nH]cn1)NC(=O)[C@H](CCCNC(=N)N)NC(=O)[C@H](C)NC(=O)[C@H](CCCCN)NC(C)=O)C(=O)N[C@@H](CC(N)=O)C(=O)N[C@@H](Cc1ccc(O)cc1)C(=O)N[C@H](C(=O)N[C@@H](Cc1ccccc1)C(=O)N1CCC[C@H]1C(=O)N[C@@H](C)C(=O)N[C@@H](Cc1c[nH]cn1)C(=O)N[C@@H](CCCCN)C(=O)N[C@@H](CC)C(=O)N[C@H](C(=O)N[C@@H](CC)C(=O)N[C@@H](Cc1ccc(O)cc1)C(=O)N[C@@H](Cc1ccccc1)C(N)=O)[C@@H](C)CC)C(C)C [Peptide N1, KARHGSBNYVFPAHKBIBYF] (Ac-KARHGS[Abu]NYVFPAHK[Abu]I[Abu]YF-NH2) | – | – | – | – | 14.0 ± 6.2 µg/mL (≈ 6 µM) | 27.0 ± 7.7 μg/ml | 142.6 ± 13.6 μg/ml | –
9 | CC[C@H](NC(=O)[C@H](C)NC(=O)CNC(=O)[C@H](Cc1c[nH]cn1)NC(=O)[C@H](C)NC(=O)[C@H](C)NC(C)=O)C(=O)N[C@@H](Cc1c[nH]cn1)C(=O)N[C@H](C(=O)N[C@@H](CCCNC(=N)N)C(=O)N[C@@H](CC(N)=O)C(=O)NCC(=O)N[C@@H](CCCCN)C(=O)N[C@@H](Cc1c[nH]cn1)C(=O)N[C@@H](CCSC)C(=O)N[C@@H](CC)C(=O)N[C@@H](Cc1ccccc1)C(=O)N[C@@H](CC)C(=O)N[C@@H](Cc1ccc(O)cc1)C(=O)N[C@@H](Cc1ccccc1)C(N)=O)C(C)C [Peptide N5, AAHGABHVRNGKHMBFBYF] (Ac-AAHGA[Abu]HVRNGKHM[Abu]F[Abu]YF-NH2) | – | – | – | – | 8.0 ± 0.4 µg/mL (≈ 3.74 µM) | 20.9 ± 1.8 μg/ml | 24.2 ± 0.2 μg/ml | activity compared to Rs-AFP counterpart G2 (½ PDB): almost two-fold higher activity
10 | CC[C@H](NC(=O)[C@H](CO)NC(=O)CNC(=O)[C@H](Cc1c[nH]cn1)NC(=O)[C@H](CCCNC(=N)N)NC(C)=O)C(=O)N[C@@H](CC(N)=O)C(=O)N[C@@H](Cc1ccc(O)cc1)C(=O)N[C@H](C(=O)N[C@@H](Cc1ccccc1)C(=O)N1CCC[C@H]1C(=O)N[C@@H](C)C(=O)N[C@@H](Cc1c[nH]cn1)C(=O)N[C@@H](CCCCN)C(=O)N[C@@H](CC)C(=O)N[C@H](C(=O)N[C@@H](CC)C(=O)N[C@@H](Cc1ccc(O)cc1)C(=O)N[C@@H](Cc1ccccc1)C(N)=O)[C@@H](C)CC)C(C)C [Peptide P02, RHGSBNYVFPAHKBIBYF] (Ac-RHGS[Abu]NYVFPAHK[Abu]I[Abu]YF-NH2) | – | – | – | – | – | – | – | IC50 SMF + pH5 [4]: 69 ± 34 μg/ml; IC50 SMF + pH7 [4]: 133 ± 6 μg/ml; IC50 ½ PDB [4]: 8.9 µg/mL (≈ 4.17 µM)

— patent US20030226169A1, “DNA sequences encoding antifungal proteins” (priority 1995, published 2003)
